Assay results from patent US4283420A, “Pharmaceutically active cyclohexyl compounds and their preparation” (Labaz, priority 1978, dated 1981).
Read-outs that look alike come from different tables or passages of the source.

How the values were obtained:
mice [1] = test: β-Mercaptopropionic acid seizure; format: in vivo; settings: Mus musculus, po, 0.25 h, read-out: β-Mercaptopropionic acid seizure, ED50
Experimental: β-Mercaptopropionic acid seizure
β-Mercaptopropionic acid is an inhibitor of glutamatedecarboxylase (GAD), which is an enzyme which catalyses the conversion of glutamate to γ-aminobutyric acid (GABA). Its action thus manifests itself in a lowering of the GABA level and the occurrence of general tonico-clonic seizures 3 to 4 minutes after it has been administered. β-Mercaptopropionic acid was administered to mice intraperitoneally at a dose of 40 mg/kg.

male OFl mice = test: Pentetrazole seizure (mortality after i.p. pentetrazole 125 mg/kg); format: in vivo; settings: for ED50: Mus musculus, po, 0.25 h
Experimental: This test was carried out on batches of 10 male OFl mice which had fasted since the day before and were placed in individual cages, in accordance with the method of Cheymol (J.) Acta. Pharmacol., (1950), 2, 1-55.
The treatments were carried out perorally 15 minutes before intraperitoneal (i.p.) injection of a solution of pentetrazole (125 mg/kg).
The mortality is recorded 3 hours after this injection.
It is to be noted that the 50% effective doses (ED50), where these have been determined, were calculated by the method of MOOD (J. Am. Statist. Assoc., (1965), 60, 967-78).

[2] = Sedative activity: Rotarod test; format: in vivo, mice (male); settings: mouse, in vivo, po
Experimental: (§1) This test is used for the purpose of assessing the ability of the animals to coordinate their movements. It uses a wooden cylinder which has a diameter of 4.8 cm and revolves at a speed of 4 revolutions/minute. The test is carried out on male mice weighing about 22 g. The products are administered perorally (p.o.) to batches of 10 animals per dose. The animals are placed on the apparatus 15 minutes after administration of the product. The percentage of mice which lose their equilibrium reflex, that is to say which become incapable of retaining their balance on the cylinder for a period of 2 minutes, is noted.
(§2) Using the regression straight line method, a 50% neurotoxic dose (NTD 50) is calculated, which thus expresses the average level of the first neuromuscular effects under the influence of the studied product.

mouse = test: Ouabain seizure; format: in vivo; settings: po, 0.25 h, read-out: Ouabain seizure, ED50
Experimental: Ouabain was administered intra-ventricularly at a dose of 5 γ/mouse in a volume of 0.02 ml.

male Swiss mice = test: Maximum electrical seizure; format: in vivo; settings: for ED50: Mus musculus, po, 0.25 h, read-out: Maximum electrical seizure, ED50; for Maximum electrical seizure, % protection: peroral, 15 minutes
From the text: Maximum electrical seizure
The technique used is that recommended by GOODMAN (L. S.), SING-GREWALD (M.), BROWN (V. C.) and […] (E. A.), Am.
The animals tested are male Swiss mice grouped into batches of 10. The normal threshold of the electric shock which is capable of causing tonic extension of the front paws is first determined for each animal.

mice [3] = test: Anoxia as a result of confinement; format: in vivo; settings: Mus musculus, ip, read-out: Anoxia as a result of confinement, % increase in the survival time
Experimental: Anoxia as a result of confinement
Mice (in batches of 20) are placed in a 200 cm^3 hermetically sealed chamber (a wide-mouthed glass vessel) which is under normal pressure and has a normal content of atmospheric oxygen. All of the treatments are administered intraperitoneally immediately before introduction into the chamber. The animal is considered to be dead at the moment when breathing stops.
Since the wide-mouthed vessels chosen are very small, the motor activity of the animals is extremely low and this eliminates, in principle, the possibility of a positive result due to a sedative effect.
Therefore, the percentage increase in the survival time of the treated animals is noted, relative to the batch.

Acute toxicity, peroral = settings: mouse, in vivo, po
Experimental: In order to locate the boundary separating the pharmacological effects from the toxicity of the products, a very approximate assessment of the toxicity was carried out on mice (batches of 10 animals) after peroral treatment.

male mice = test: Sedative activity: Rotarod test; format: in vivo; settings: peroral, mice
Experimental: as §1, §2

[4] = β-mercaptopropionic acid 40 mg/kg i.p., mice, 15 minutes after peroral treatment
[5] = Table IV, mice, measured 15 minutes after peroral treatment, read-out: Pentetrazole seizure, ED50
[6] = ouabain 5 γ/mouse intra-ventricularly, measured 15 minutes after peroral treatment
[7] = mice, measured 15 minutes after peroral treatment
[8] = peroral, 15 minutes after administration, male mice, read-out: Sedative activity, Rotarod test, ED50
[9] = read-out: Pentetrazole seizure, ED50
[10] = read-out: DE 50, Pentetrazole crisis test

SMILES	ED50 (mice [1]; [4]) [mg/kg]	ED50 (male OFl mice; [5]) [mg/kg]	TD50 at 0.25 h [2] [mg/kg]	ED50 (mouse; [6]) [mg/kg]	ED50 (male Swiss mice; [7]) [mg/kg]	also measured
CC(C)(C)C1(C(N)=O)CCCCC1 [Example 42, 1-tert-butyl-1-cyclohexyl-carboxamide]	95	79				
NC(=O)C1(CCOc2ccccc2)CCCCC1 [Example 54, 1-(2-phenoxyethyl)-1-cyclohexyl-carboxamide]	86	198	160			
CC(C)C1(C(N)=O)CCCCC1 [Example 29]	12	15	35	31	70	ILS at 25 mg/kg (mice [3]; at 25 mg/kg, intraperitoneal, mice): 16%; mortality (Acute toxicity, peroral; 500 mg/kg): 100%
NC(=O)C1(Cc2ccccc2)CCCCC1 [Example 32]	200	32	125	200	115	ILS at 50 mg/kg (mice [3]; intraperitoneal, mice): 0%
C=C(Cl)CC1(C(N)=O)CCCCC1 [Example 24, 1-(2'-chloro-2'-propenyl)-1-cyclohexyl-carboxamide]	64	57	125	96	101	ILS at 50 mg/kg (mice [3]; intraperitoneal, mice): 0%; mortality (Acute toxicity, peroral; 500 mg/kg): 20%
CC1(C(=O)[O-])CCCCC1.[Na+]						TD50 at 0.25 h [2, 8]: 1020 mg/kg; ED50 (mice [1]): 118 mg/kg; ED50 (mouse; Mus musculus): 600 mg/kg; ED50 (male Swiss mice): 563 mg/kg; ILS at 160 mg/kg (mice [3]): 29%; ED50 (male OFl mice; [9]): 317 mg/kg; mortality (Acute toxicity, peroral; at 1882 mg/kg, peroral, mice): 50%
CC(C)C1(C(=O)O)CCCCC1 [Example 16]						ED50 (male OFl mice; Table III, mice, peroral, 15 minutes after administration, read-out: DE 50, Pentetrazole crisis test): 110 mg/kg
CC(C)(C)C1(C(=O)[O-])CCCCC1.[Na+] [Example 41, Sodium 1-tert-butyl-1-cyclohexyl-carboxylate]						ED50 (male OFl mice; [10]): 131 mg/kg
COCC1(C(=O)O)CCCCC1 [Example 55]		190		950		Rotarod test, % of failures (male mice; at 600 mg/kg): 0%; Maximum electrical seizure, % protection (male Swiss mice; at 190 mg/kg, mice): 0%
C#CC1(C(=O)O)CCCCC1 [Example 17]				933		Rotarod test, % of failures (male mice; at 500 mg/kg): 0%; Maximum electrical seizure, % protection (male Swiss mice; at 170 mg/kg, mice): 13%; ILS at 210 mg/kg (mice [3]; at 210 mg/kg, intraperitoneal, mice): 23%; Pentetrazole seizure, % protection (male OFl mice; at 170 mg/kg, peroral, 15 minutes, mice): 30%
C=CCC1(C(N)=O)CCCCC1 [Example 27]	38	20	75	66	55	ILS at 50 mg/kg (mice [3]; intraperitoneal, mice): 0%; mortality (Acute toxicity, peroral; 500 mg/kg): 100%
O=C([O-])C1(CC(Br)=CBr)CCCCC1.[Na+]						TD50 at 0.25 h [2, 8]: 280 mg/kg; ED50 (mice [1]): 340 mg/kg; ED50 (mouse; Mus musculus): > 900 mg/kg; Maximum electrical seizure, % protection (male Swiss mice; at 600 mg/kg, mice): 60%; ILS at 190 mg/kg (mice [3]): 50%; ED50 (male OFl mice; [9]): 240 mg/kg; mortality (Acute toxicity, peroral; at 600 mg/kg, peroral, mice): 0%
CCCC(CCC)C(=O)[O-].[Na+] [Depakene, sodium dipropyl-acetate, reference compound]						ED50 (male OFl mice; [10]): 142 mg/kg
CC1(C(N)=O)CCCCC1 [Example 28]	100	178	425		311	ILS at 70 mg/kg (mice [3]; at 70 mg/kg, intraperitoneal, mice): 30%; mortality (Acute toxicity, peroral; 752 mg/kg): 50%
